Data as given in patent US4251628A, “Substrates for angiotensin converting enzyme” (priority 1978, dated 1981).

Tests used:
[1] = Extraction (partition) into ethyl acetate; assay type: physicochemical
From the text: (§1) Reaction conditions optimal for carrying out an ACE catalyzed hydrolysis of a substrate of the present invention are the same as have been previously described for substrates known in the prior art. Detailed studies of optimal conditions using HipGlyGly as substrate have been reported by Dorer, et al. The pH optimum is approximately 8.0 although greater than 50% maximal activity is obtained in the pH range 7.0-9.0, in the presence of 1 M NaCl. […] The relationship between the chloride requirement and the ionic strength requirement has not been fully characterized. […] Phosphate is inhibitory. Hepes, bicine and barbital buffers are suitable for use but Hepes is preferred because it provides maximum activity. Preferred conditions of buffer composition, ionic strength, pH and temperature are described in Example 1. […] The pH range for usable enzyme activity is from pH 6.5 to pH 8.7, with a broad plateau of maximal activity ranging from pH 7.2 to pH 8.5. Optimal substrate concentration depends upon the apparent Km, for the substrate compared with the Km's of possible competing substances in the sample. A substrate having a relatively low Km, such as ^3 H-benzoylProPheArg (Km 2×10^-4 M) could be suitably used at a concentration less than its Km. A substrate having a higher Km might better be used at a concentration greater than its Km. […] Because its Km is the lowest of any of the substrates of the present invention, ^3 H-benzoylProPheArg is the most preferred substrate for assays where ACE activity is low and maximum sensitivity is desired. In addition to being less sensitive to competitive inhibition, assays carried out with this substrate are potentially able to measure lower levels of ACE than the other substrates disclosed herein. Additionally, its partition behavior in an aprotic organic solvent is extremely favorable: only about 3% entered ethyl acetate in a preliminary extraction experiment. The remnant product Benzoylproline was about 90% extracted.
The remnant reaction product may be extracted from the reaction mixture by an aprotic organic solvent which affords a reasonably quantitative separation of product from substrate. The use of solvents which may interfere with the counting process is to be avoided. Ethyl acetate is preferred. Approximately 91% of ^3 H-Hippuric acid is extracted into ethyl acetate. Extraction may be carried out by any suitable means familiar to those skilled in the art, such as shaking, agitating, mixing and the like. Separation of the phases is conveniently accomplished by centrifugation. Centrifugation at 1000×G for ten minutes is preferred, either at room temperature or in a refrigerated centrifuge. In some cases, an emulsion will form which can be separated by a longer centrifugation step.
A control determination of background radioactivity was made using 50 μl. of reaction buffer instead of diluted serum in the reaction mixture. The purpose of this control was to determine the number of total counts attributable to background radiation, non-specific release of hippuric acid and the presence of unreacted substrate in the ethyl acetate phase. Less than 7% of the ^3 H-HipGly Gly entered the organic phase. Total radioactivity was determined by counting an amount of substrate equal to that used in the reaction mixture directly in the scintillation counter. […]

[2] = tested on: angiotensin converting enzyme (ACE); settings: HipGlyGly as substrate, cited from earlier work
[3] = molecular target: T1, angiotensin converting enzyme (ACE) (Homo sapiens, UniProt P12821); assay: ACE assay: hydrolysis of ^3H-HipGlyGly by human serum, Lineweaver-Burke Km; assay type: biochemical
T1 construct: Serum was prepared from fresh whole blood by standard techniques; from tissue; host or cells: serum (unfractionated)
T1 sequence (P12821 30-1232 limits assumed): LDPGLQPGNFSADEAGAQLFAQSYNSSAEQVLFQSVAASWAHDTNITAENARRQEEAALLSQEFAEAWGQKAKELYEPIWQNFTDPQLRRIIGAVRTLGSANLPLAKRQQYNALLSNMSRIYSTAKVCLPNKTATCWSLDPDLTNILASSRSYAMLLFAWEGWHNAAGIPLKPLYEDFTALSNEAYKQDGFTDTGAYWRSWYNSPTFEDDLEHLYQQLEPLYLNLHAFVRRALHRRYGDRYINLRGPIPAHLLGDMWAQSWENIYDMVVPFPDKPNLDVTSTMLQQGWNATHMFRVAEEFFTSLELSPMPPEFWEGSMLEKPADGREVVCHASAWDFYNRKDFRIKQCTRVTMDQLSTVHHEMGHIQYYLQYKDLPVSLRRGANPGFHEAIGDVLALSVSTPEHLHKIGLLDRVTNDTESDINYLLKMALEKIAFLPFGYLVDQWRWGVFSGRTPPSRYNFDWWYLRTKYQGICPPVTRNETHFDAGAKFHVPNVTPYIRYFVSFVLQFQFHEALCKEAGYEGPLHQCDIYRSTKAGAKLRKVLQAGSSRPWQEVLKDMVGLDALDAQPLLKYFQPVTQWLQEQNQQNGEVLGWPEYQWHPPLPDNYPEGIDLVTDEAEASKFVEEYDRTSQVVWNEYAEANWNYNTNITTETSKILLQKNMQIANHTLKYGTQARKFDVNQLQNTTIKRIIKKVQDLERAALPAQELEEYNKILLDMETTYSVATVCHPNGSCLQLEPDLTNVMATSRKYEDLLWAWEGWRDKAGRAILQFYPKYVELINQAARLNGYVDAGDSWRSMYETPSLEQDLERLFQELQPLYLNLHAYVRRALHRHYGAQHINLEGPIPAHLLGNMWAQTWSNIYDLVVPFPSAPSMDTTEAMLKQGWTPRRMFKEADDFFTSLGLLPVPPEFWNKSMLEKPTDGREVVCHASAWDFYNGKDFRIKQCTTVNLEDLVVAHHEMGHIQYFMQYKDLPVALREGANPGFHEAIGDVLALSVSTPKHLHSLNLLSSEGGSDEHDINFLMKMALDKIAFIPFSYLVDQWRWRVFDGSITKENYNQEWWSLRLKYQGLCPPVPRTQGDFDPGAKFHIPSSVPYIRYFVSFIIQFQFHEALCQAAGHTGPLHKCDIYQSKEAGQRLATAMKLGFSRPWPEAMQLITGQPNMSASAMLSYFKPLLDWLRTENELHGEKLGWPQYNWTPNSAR
Description: The following sample illustrates the preferred assay method, the sensitivity of the assay and the Km for ^3 H-HipGlyGly. The reaction buffer contains 0.05 M Hepes, 0.1 M sodium chloride and 0.6 M sodium sulphate at pH 8.0. (Pepes is N-2-Hydroxyethyl piperazine N'-2-ethane sulfonic acid.) The substrate, ^3 H-HipGlyGly was dissolved in reaction buffer at a concentration of 16 mM and a specific radioactivity of about 0.15 millicuries/millimole. Serum was prepared from fresh whole blood by standard techniques. […] Hemolyzed samples were not used in the assay. Serum samples could be stored at least for one week at 2° C. to 8° C. or for at least 8 weeks frozen, prior to assaying. For the assay, 50 μl. of serum was diluted with 200 μl. of reaction buffer. All the reactions were carried out in glass tubes due to the potentially destructive action of ethyl acetate on plastic.
The reaction mixture was composed of 50 μl. of diluted serum, an appropriate amount of substrate solution depending on the final substrate concentration desired, and reaction buffer sufficient to give a total reaction volume of 100 μl. All reaction tubes were incubated for 60 minutes at 37° C. Reactions were terminated by the addition of 1.0 ml. of 0.1 N hydrochloric acid. The reaction mixture was then extracted with 1.0 ml. ethyl acetate, by rotary agitation for 4-5 seconds. The phases were separted by centrifugation at 1000×G for ten minutes. A 0.5 ml. sample of the ethyl acetate (upper) layer was removed and tranferred to a scintillation vial containing 10 ml. scintillation fluid. (Riafluor, Trademark, New England Nuclear Corp., Boston, Mass.)
A control determination of background radioactivity was made using 50 μl. of reaction buffer instead of diluted serum in the reaction mixture. The purpose of this control was to determine the number of total counts attributable to background radiation, non-specific release of hippuric acid and the presence of unreacted substrate in the ethyl acetate phase. Less than 7% of the ^3 H-HipGly Gly entered the organic phase. Total radioactivity was determined by counting an amount of substrate equal to that used in the reaction mixture directly in the scintillation counter.
Reaction velocity, in terms of nanomoles of product formed per minute per ml of serum was calculated according to the following formula: [formula] In this formula, "nmoles" means nanomoles, "min" means minutes, "ml" means milliliters and "cpm" means radioactivity counts per minute. The factor of 2 is a correction for the aliquot size. In the case where a significant fraction of substrate has been hydrolyzed, and the substrate in one which is more soluble in the organic phase, as for example, ^125 I-HPPGlyGlyGly, a modified formula is used to take account of the decreasing amount of substrate as the reaction progresses: [formula]
Reciprocal values of initial substrate concentration and reaction velocity were calculated and graphed according to the method of Lineweaver and Burke, as shown in FIG. 1. A straight line was obtained, which intercepted the ordinate at a value equal to the reciprocal of the maximum velocity of the enzyme reaction and intercepted the abcissa at a value equal to the negative reciprocal of the apparent Michaelis constant. […] It can be seen that reaction velocities as low as 12 nanomoles of substrate hydrolyzed per minute per ml. of serum can readily be measured.

[4] = tested on: angiotensin converting enzyme (ACE); settings: similar reaction conditions, enzyme from hog lung (Dorer et al.); cited from earlier work
[5] = tested on: serum carboxypeptidase; assay: Sensitivity to serum carboxypeptidase; assay type: biochemical
[6] = tested on: angiotensin converting enzyme (ACE); assay: ACE-catalyzed hydrolysis: Km, pH, chloride and buffer dependence; assay type: biochemical; settings: by substrate
From the text: as §1

[7] = molecular target: T2, angiotensin converting enzyme (ACE) (Cavia porcellus, UniProt H0UWL7); assay: Hydrolysis of ^125I-HPPGlyGlyGly by guinea pig serum ACE; assay type: biochemical
T2 construct: native circulating soluble form, expected to be shed somatic ACE
T2 sequence (H0UWL7 33-1234): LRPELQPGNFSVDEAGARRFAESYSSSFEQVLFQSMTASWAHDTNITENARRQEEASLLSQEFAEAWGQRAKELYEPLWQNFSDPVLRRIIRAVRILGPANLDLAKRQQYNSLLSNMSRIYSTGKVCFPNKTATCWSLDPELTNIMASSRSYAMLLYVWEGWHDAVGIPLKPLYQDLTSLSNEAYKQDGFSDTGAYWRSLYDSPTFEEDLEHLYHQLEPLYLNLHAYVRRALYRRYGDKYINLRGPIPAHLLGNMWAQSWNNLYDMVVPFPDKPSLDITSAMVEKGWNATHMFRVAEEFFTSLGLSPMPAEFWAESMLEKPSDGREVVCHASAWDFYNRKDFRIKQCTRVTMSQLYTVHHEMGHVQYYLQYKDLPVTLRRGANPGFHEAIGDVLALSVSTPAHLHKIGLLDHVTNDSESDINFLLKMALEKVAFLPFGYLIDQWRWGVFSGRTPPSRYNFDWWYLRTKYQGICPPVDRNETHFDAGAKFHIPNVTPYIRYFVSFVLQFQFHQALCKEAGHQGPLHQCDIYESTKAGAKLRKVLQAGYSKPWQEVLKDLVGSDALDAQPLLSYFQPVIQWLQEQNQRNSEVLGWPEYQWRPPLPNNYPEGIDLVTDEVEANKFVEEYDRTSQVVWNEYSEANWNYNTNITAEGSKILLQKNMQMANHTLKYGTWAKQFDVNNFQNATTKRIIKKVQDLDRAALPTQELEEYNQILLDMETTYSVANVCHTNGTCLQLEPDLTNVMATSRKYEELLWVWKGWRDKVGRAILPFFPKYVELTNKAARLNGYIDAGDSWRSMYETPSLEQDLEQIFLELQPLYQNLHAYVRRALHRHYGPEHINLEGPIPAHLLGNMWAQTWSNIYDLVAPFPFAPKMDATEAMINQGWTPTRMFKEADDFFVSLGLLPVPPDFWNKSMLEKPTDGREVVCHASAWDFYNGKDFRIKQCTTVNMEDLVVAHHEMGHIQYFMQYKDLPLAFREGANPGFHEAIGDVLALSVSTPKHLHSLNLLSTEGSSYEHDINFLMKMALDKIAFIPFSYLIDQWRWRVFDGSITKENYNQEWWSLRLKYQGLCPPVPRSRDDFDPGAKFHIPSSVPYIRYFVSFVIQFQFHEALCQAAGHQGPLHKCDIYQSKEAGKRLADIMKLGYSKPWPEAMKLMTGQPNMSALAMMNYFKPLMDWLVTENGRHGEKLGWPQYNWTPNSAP
Description: The standard assay conditions as described in Example 1 were employed except that the source of ACE was guinea pig serum and the amount of substrate added was that amount needed to give 101,436 total counts per minute. In terms of mass, this amount is believed to be well below the Km for the substrate. Samples were incubated for 15 minutes, 30 minutes and 60 minutes, and an unreacted sample (0 time) was used to determine the amount of substrate extracted into ethyl acetate.

[3H]c1ccc(C(=O)NCC(=O)NCC(=O)NCC(=O)O)cc1 [^3 H-HipGlyGly, ^3 H-hippurylglycylglycine]
Fraction extracted into ethyl acetate [1]: Less than 7%
pH range with greater than 50% maximal activity ([2]; 1 M NaCl): 7.0-9.0
pH optimum of ACE-catalyzed hydrolysis ([2]; Dorer et al.): approximately 8.0
Reciprocal of reaction velocity ([3]; [S] 1.82 mM): 0.0504
Velocity ([3]; [S] 1.82 mM): 19.83 nanomoles of product formed pe
Reciprocal of reaction velocity ([3]; [S] 3.64 mM): 0.0289
Velocity ([3]; [S] 3.64 mM): 34.65 nanomoles of product formed pe
Reciprocal of reaction velocity ([3]; [S] 5.45 mM): 0.0214
Velocity ([3]; [S] 5.45 mM): 46.76 nanomoles of product formed pe
Reciprocal of reaction velocity ([3]; [S] 7.27 mM): 0.0191
Velocity ([3]; [S] 7.27 mM): 52.48 nanomoles of product formed pe
Reciprocal of reaction velocity ([3]; [S] 9.09 mM): 0.0183
Velocity ([3]; [S] 9.09 mM): 54.63 nanomoles of product formed pe
Reciprocal of reaction velocity ([3]; [S] .91 mM): 0.0810
Velocity ([3]; [S] .91 mM): 12.35 nanomoles of product formed pe
Assay sensitivity (lowest measurable enzyme activity) ([3]; assay condition of Example 1): 8 units of enzyme per ml
Km [4]: 2600 µM
Sensitivity to serum carboxypeptidase [5]: insensitive to serum carboxypeptidase
Chloride / ionic strength requirement of the ACE-catalyzed hydrolysis [6]: requires chloride ions

O=C(O)CNC(=O)CNC(=O)CNC(=O)CCc1ccc(O)c([125I])c1 [^125 I-HPPGlyGlyGly, ^125 I-p-hydroxyphenylpropionylglycylglycylglycine]
Fraction extracted into ethyl acetate [1]: 27.2%
Sensitivity to serum carboxypeptidase [5]: insensitive to serum carboxypeptidase
Net cpm in product ([7]; incubation 0 min): 0 cpm
cpm in Ethyl Acetate phase ([7]; incubation 0 min): 27,205 cpm
Net cpm in product ([7]; incubation 15 min): 17,808 cpm
cpm in Ethyl Acetate phase ([7]; incubation 15 min): 40,000 cpm
Net cpm in product ([7]; incubation 30 min): 43,804 cpm
cpm in Ethyl Acetate phase ([7]; incubation 30 min): 59,182 cpm
Net cpm in product ([7]; incubation 60 min): 58,044 cpm
cpm in Ethyl Acetate phase ([7]; incubation 60 min): 69,577 cpm
Chloride / ionic strength requirement of the ACE-catalyzed hydrolysis [6]: requires chloride ions
